Laboratory results reported in patent US11760733B2, “Small molecule regulators of mitochondrial fusion and methods of use thereof” (Washington University, priority 2017, dated 2023).

Legend:
Mfn2 HR2 target peptide = biological target: T1, Mfn2 HR2 target peptide (Homo sapiens, UniProt O95140); assay: HR1 peptide-HR2 target binding assay
T1 construct: Gly linker (GGGG after the His tag)
T1 sequence (O95140 with tags, fused parts or gaps limits assumed): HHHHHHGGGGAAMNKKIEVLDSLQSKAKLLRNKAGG
Source text: The Mfn-derived fusion-promoting and -inhibiting mini-peptides (simulated to obtain the chemical Mfn agonists in TABLE 1 and TABLE 2) were modified from amino acid heptad repeats (HR) in the HR1 domain and predicted to interact with their counterparts in the carboxyl terminus HR2 domain within the Mfn stalk region (see e.g., FIG. 1, top panel). A high-throughput binding assay was designed whereby the target HR2 peptide sequences, modified to include amino terminal 6×His tags and Gly linkers, were bonded to Ni-chelate resin (20 μg/ml) and used as immobilized “receptor” for amino-FITC-tagged Mfn2 374-384 (agonist ligand) in which the Ser analogous to Ser378 was replaced with Asp to confer the negative charge essential for activity. For antagonist studies the ligand was amino-FITC-tagged Mfn2 406-418. The FITC peptide ligands are suspended at 1 mM in 30% DMSO, 70% water (to minimize spontaneous aggregation) and diluted into binding buffer (de-ionized water) to a final concentration of 25 μM in the presence or absence of competing compound. Dose-dependent loss of resin-bound FITC signal (485 nm excitation/538 nm emission) measured in a 96 well spectrofluorometer represents binding of compound to its HR2 target (see e.g., FIG. 10, FIG. 11). Either the ligand peptide or the receptor peptide can be modified to represent mutations, variations, or posttranslational modifications of Mfn2. […]
Target HR2 peptide sequence modified to include amino terminal 6×His tags and Gly linkers, were bonded to Ni-NTA resin (4.4 μg/ml) (Quiagen) and used as immobilized “receptor” for amino-FITC-tagged Mfn2 374-384 (ligand) in which the Ser analogous to Ser378 was replaced with Asp to confer the negative charge essential for activity. […] Resin-bound FITC signal (485 nm excitation/538 nm emission) measured in a 96 well spectrofluorometer (Spectramax M5e, Molecular Devices) represented binding to HR2 target. Competition binding isotherms were plotted and IC50 values calculated using Prism 7 (Graph Pad).

[1] = test system: MEFs expressing CMT2A mutant MFN2; assay: Mitochondrial dysmorphology in MEFs expressing MFN2 mutants; type: cell-based, mouse; conditions: MFN2 T105M in MEFs
Protocol: Fusogenic activity of commercially available small-molecule candidate pharmacophores (TABLE 4), focusing on those having structures that mimicked Ser^378-phosphorylated (class A) and -unphosphorylated (class B) minipeptide amino acid side chains were assessed (see e.g., FIG. 5, TABLE 5). It was reasoned that simultaneous application of class A and B agonists could enhance mitofusin by acting on both MFN2 Ser^378 phosphorylation states. […] Therefore, Cpd A and B functionality were assimilated into a single molecule by creating Cpd A-B chimeras (see e.g., FIG. 11, FIG. 7, TABLE 6). […] On the basis of fluorescence resonance energy transfer (FRET) analysis of MFN2 labeled at the N and C termini, mitofusin agonists promoted an open MFN2 conformation favoring mitochondrial fusion, with a rank order paralleling that for HR2 binding and mitochondrial fusion (see e.g., FIG. 11G; compare to FIG. 11B and FIG. 11C), supporting allosteric activation. […]
Cells were excited with 408 nm (Hoechst), […] (MitoTracker Green and Calcein AM, GFP), or 637 nm (TMRE, MitoTracker Orange, Ethidium homodimer-1, and AF594-Dextran) laser diodes. For mitochondrial elongation studies mitochondrial aspect ratio (long axis/short axis) was calculated using automated edge detection and Image J software. […]

Compound: CC1CCCCC1NC(=O)NCCSc1nnc(C2CC2)n1-c1ccccc1 (racemic) [B-A/I, 1-(2-((5-cyclopropyl-4-phenyl-4H-1,2,4-triazol-3-yl)thio)ethyl)-3-(2-methylcyclohexyl)urea]
- competition for minipeptide binding at MFN2 HR2 site (Mfn2 HR2 target peptide): competed for minipeptide binding
- reversal of mitochondrial dysmorphology [1]: as effective as the combination of Cpds A+B
